Test results: patent US11427549B2, “Pyrimidinyloxy benzo-fused compounds as herbicides” (FMC Corporation, priority 2017, dated 2022)

Key:
[1] = tested on: barnyardgrass (Echinochloa crus-galli); assay: Test A preemergence, barnyardgrass; format: in vivo; settings: Echinochloa crus-galli, pre-emergence, 240 h, 0 to 100 scale (0 no effect, 100 complete control), read-out: Plant response rating, Barnyardgrass; for pest or weed control at 31 g/ha: 31 g ai/ha; for pest or weed control at 125 g/ha: 125 g ai/ha
kochia (Kochia scoparia) [2] = assay: Test A preemergence, kochia; format: in vivo; settings: Bassia scoparia, pre-emergence, 240 h, 0 to 100 scale (0 no effect, 100 complete control), read-out: Plant response rating, Kochia; for pest or weed control at 31 g/ha: 31 g ai/ha; for pest or weed control at 125 g/ha: 125 g ai/ha
[3] = tested on: ragweed (common ragweed, Ambrosia elatior); assay: Test A preemergence, ragweed; format: in vivo; settings: Ambrosia artemisiifolia, pre-emergence, 240 h, 0 to 100 scale (0 no effect, 100 complete control), read-out: Plant response rating, Ragweed; for pest or weed control at 31 g/ha: 31 g ai/ha; for pest or weed control at 125 g/ha: 125 g ai/ha
[4] = tested on: ryegrass, Italian (Italian ryegrass, Lolium multiflorum); assay: Test A preemergence, ryegrass, Italian; format: in vivo; settings: Lolium multiflorum, pre-emergence, 240 h, 0 to 100 scale (0 no effect, 100 complete control), read-out: Plant response rating, Ryegrass, Italian; for pest or weed control at 31 g/ha: 31 g ai/ha; for pest or weed control at 125 g/ha: 125 g ai/ha
[5] = tested on: pigweed (Amaranthus retroflexus); assay: Test A preemergence, pigweed; format: in vivo; settings: Amaranthus retroflexus, pre-emergence, 240 h, 0 to 100 scale (0 no effect, 100 complete control), read-out: Plant response rating, Pigweed; for pest or weed control at 31 g/ha: 31 g ai/ha; for pest or weed control at 125 g/ha: 125 g ai/ha
[6] = tested on: barnyardgrass (Echinochloa crus-galli); assay: Test A postemergence, barnyardgrass; format: in vivo; settings: Echinochloa crus-galli, post-emergence, 240 h, 0 to 100 scale (0 no effect, 100 complete control), read-out: Plant response rating, Barnyardgrass; for pest or weed control at 31 g/ha: 31 g ai/ha; for pest or weed control at 125 g/ha: 125 g ai/ha
kochia (Kochia scoparia) [7] = assay: Test A postemergence, kochia; format: in vivo; settings: Bassia scoparia, post-emergence, 240 h, 0 to 100 scale (0 no effect, 100 complete control), read-out: Plant response rating, Kochia; for pest or weed control at 31 g/ha: 31 g ai/ha; for pest or weed control at 125 g/ha: 125 g ai/ha
[8] = tested on: ragweed (common ragweed, Ambrosia elatior); assay: Test A postemergence, ragweed; format: in vivo; settings: Ambrosia artemisiifolia, post-emergence, 240 h, 0 to 100 scale (0 no effect, 100 complete control), read-out: Plant response rating, Ragweed; for pest or weed control at 31 g/ha: 31 g ai/ha; for pest or weed control at 125 g/ha: 125 g ai/ha
[9] = tested on: ryegrass, Italian (Italian ryegrass, Lolium multiflorum); assay: Test A postemergence, ryegrass, Italian; format: in vivo; settings: Lolium multiflorum, post-emergence, 240 h, 0 to 100 scale (0 no effect, 100 complete control), read-out: Plant response rating, Ryegrass, Italian; for pest or weed control at 31 g/ha: 31 g ai/ha; for pest or weed control at 125 g/ha: 125 g ai/ha
[10] = tested on: foxtail, green (green foxtail, Setaria viridis); assay: Test A postemergence, foxtail, green; format: in vivo; settings: Setaria, post-emergence, 240 h, 0 to 100 scale (0 no effect, 100 complete control), read-out: Plant response rating, Foxtail, Green; for pest or weed control at 31 g/ha: 31 g ai/ha; for pest or weed control at 125 g/ha: 125 g ai/ha
[11] = tested on: pigweed (Amaranthus retroflexus); assay: Test A postemergence, pigweed; format: in vivo; settings: Amaranthus retroflexus, post-emergence, 240 h, 0 to 100 scale (0 no effect, 100 complete control), read-out: Plant response rating, Pigweed; for pest or weed control at 31 g/ha: 31 g ai/ha; for pest or weed control at 125 g/ha: 125 g ai/ha
[12] = tested on: wheat (Triticum aestivum); assay: Test A postemergence, wheat; format: in vivo; settings: Triticum aestivum, post-emergence, 240 h, 0 to 100 scale (0 no effect, 100 complete control), read-out: Plant response rating, Wheat; for plant injury at 31 g/ha: 31 g ai/ha; for plant injury at 125 g/ha: 125 g ai/ha
corn (Zea mays) = assay: Test A postemergence, corn; format: in vivo; settings: Zea mays, post-emergence, 240 h, 0 to 100 scale (0 no effect, 100 complete control); for Corn plant response rating (crop injury, 0 = no effect, 100 = complete kill) at 31 g/ha: 31 g ai/ha; for Corn plant response rating (crop injury, 0 = no effect, 100 = complete kill) at 125 g/ha: 125 g ai/ha
[13] = tested on: blackgrass (Alopecurus myosuroides); assay: Test A postemergence, blackgrass; format: in vivo; settings: Alopecurus myosuroides, post-emergence, 240 h, 0 to 100 scale (0 no effect, 100 complete control), read-out: Plant response rating, Blackgrass; for pest or weed control at 31 g/ha: 31 g ai/ha; for pest or weed control at 125 g/ha: 125 g ai/ha
[14] = tested on: galium (catchweed bedstraw, Galium aparine); assay: Test A postemergence, galium; format: in vivo; settings: Galium, post-emergence, 240 h, 0 to 100 scale (0 no effect, 100 complete control), read-out: Plant response rating, Galium; for pest or weed control at 31 g/ha: 31 g ai/ha; for pest or weed control at 125 g/ha: 125 g ai/ha
rice (Oryza sativa) = assay: Test B flooded paddy test, rice; settings: Oryza sativa, read-out: Plant response rating, Rice (0 to 100 scale, 0 is no effect, 100 is complete control)
[15] = tested on: ducksalad (Heteranthera limosa); assay: Test B flooded paddy test, ducksalad; settings: Heteranthera limosa, read-out: Plant response rating, Ducksalad (0 to 100 scale, 0 is no effect, 100 is complete control)
[16] = tested on: barnyardgrass (Echinochloa crus-galli); assay: Test B flooded paddy test, barnyardgrass; settings: Echinochloa crus-galli, read-out: Plant response rating, Barnyardgrass (0 to 100 scale, 0 is no effect, 100 is complete control)

| Compound | pest or weed control at 31 g/ha [1] [%] | pest or weed control at 125 g/ha [1] [%] | pest or weed control at 31 g/ha (kochia (Kochia scoparia) [2]) [%] | pest or weed control at 125 g/ha (kochia (Kochia scoparia) [2]) [%] | pest or weed control at 31 g/ha [3] [%] | pest or weed control at 125 g/ha [3] [%] | pest or weed control at 31 g/ha [4] [%] | pest or weed control at 125 g/ha [4] [%] | pest or weed control at 31 g/ha [5] [%] | pest or weed control at 125 g/ha [5] [%] | pest or weed control at 31 g/ha [6] [%] | pest or weed control at 125 g/ha [6] [%] | pest or weed control at 31 g/ha (kochia (Kochia scoparia) [7]) [%] | pest or weed control at 125 g/ha (kochia (Kochia scoparia) [7]) [%] | pest or weed control at 31 g/ha [8] [%] | pest or weed control at 125 g/ha [8] [%] | pest or weed control at 31 g/ha [9] [%] | pest or weed control at 125 g/ha [9] [%] | pest or weed control at 31 g/ha [10] [%] | pest or weed control at 125 g/ha [10] [%] | other results |
| --- | --- | --- | --- | --- | --- | --- | --- | --- | --- | --- | --- | --- | --- | --- | --- | --- | --- | --- | --- | --- | --- |
| O=C1NC(CCCC(F)(F)F)c2c(Oc3ncc(Cl)cn3)cccc21 (stereo not drawn) [Compound 13, 4-[(5-Chloro-2-pyrimidinyl)oxy]-2,3-dihydro-3-(4,4,4-trifluorobutyl)-1H-isoindol-1-one] | 0 | 0 | 0 | 0 | 0 | 0 | 0 | 0 | 0 | 0 | 0 | 0 | 0 | 0 | 0 | 0 | 0 | 0 | 0 | 0 | pest or weed control at 31 g/ha [11]: 0%; pest or weed control at 125 g/ha [11]: 10%; plant injury at 31 g/ha [12]: 0%; plant injury at 125 g/ha [12]: 0%; Corn plant response rating (crop injury, 0 = no effect, 100 = complete kill) at 31 g/ha (corn (Zea mays)): 0%; Corn plant response rating (crop injury, 0 = no effect, 100 = complete kill) at 125 g/ha (corn (Zea mays)): 0%; pest or weed control at 31 g/ha [13]: 0%; pest or weed control at 125 g/ha [13]: 0%; pest or weed control at 31 g/ha [14]: 0%; pest or weed control at 125 g/ha [14]: 0%; plant injury at 250 g/ha (rice (Oryza sativa)): 0%; pest or weed control at 250 g/ha [15]: 0%; pest or weed control at 250 g/ha [16]: 0% |
| CN1C(=O)c2cccc(Oc3ncc(Cl)cn3)c2C1CCCC(F)(F)F (stereo not drawn) [Compound 12, 4-[(5-Chloro-2-pyrimidinyl)oxy]-2,3-dihydro-2-methyl-3-(4,4,4-trifluorobutyl)-1H-isoindol-1-one] | 0 | 0 | 0 | 0 | 0 | 0 | 0 | 0 | 0 | 0 | 0 | 0 | 0 | 10 | 0 | 20 | 0 | 0 | 0 | 10 | pest or weed control at 31 g/ha [11]: 0%; pest or weed control at 125 g/ha [11]: 30%; plant injury at 31 g/ha [12]: 0%; plant injury at 125 g/ha [12]: 0%; Corn plant response rating (crop injury, 0 = no effect, 100 = complete kill) at 31 g/ha (corn (Zea mays)): 0%; Corn plant response rating (crop injury, 0 = no effect, 100 = complete kill) at 125 g/ha (corn (Zea mays)): 10%; pest or weed control at 31 g/ha [13]: 0%; pest or weed control at 125 g/ha [13]: 0%; pest or weed control at 31 g/ha [14]: 0%; pest or weed control at 125 g/ha [14]: 10%; plant injury at 250 g/ha (rice (Oryza sativa)): 0%; pest or weed control at 250 g/ha [15]: 0%; pest or weed control at 250 g/ha [16]: 0% |
| FC(F)(F)CCC1OCc2cccc(Oc3ncc(Cl)cn3)c21 (stereo not drawn) [Compound 8, 5-Chloro-2-[[1,3-dihydro-3-(3,3,3-trifluoropropyl)-4-isobenzofuranyl]oxy]pyrimidine] | 80 | 100 | 20 | 100 | 0 | 10 | 10 | 70 | 100 | 100 | 10 | 50 | 80 | 90 | 10 | 20 | 10 | 50 | 20 | 70 | pest or weed control at 31 g/ha [11]: 100%; pest or weed control at 125 g/ha [11]: 100%; plant injury at 31 g/ha [12]: 0%; plant injury at 125 g/ha [12]: 50%; Corn plant response rating (crop injury, 0 = no effect, 100 = complete kill) at 31 g/ha (corn (Zea mays)): 10%; Corn plant response rating (crop injury, 0 = no effect, 100 = complete kill) at 125 g/ha (corn (Zea mays)): 50%; pest or weed control at 31 g/ha [13]: 30%; pest or weed control at 125 g/ha [13]: 100%; pest or weed control at 31 g/ha [14]: 30%; pest or weed control at 125 g/ha [14]: 80%; plant injury at 250 g/ha (rice (Oryza sativa)): 20%; pest or weed control at 250 g/ha [15]: 100%; pest or weed control at 250 g/ha [16]: 35% |
